# According to US4837305A, “Derivatives of β-adrenergic antagonists” (The Regents of the University of California, priority 1987, dated 1989):
# Test system: S-49 mouse lymphoma cells
# Assay: Blocking of isoproterenol-promoted cyclic AMP accumulation in S-49 mouse lymphoma cells
# Type: cell-based
# Details: relative to practolol; blocking isoproterenol-promoted cyclic AMP release in S49 cells
# From the text: The β-adrenergic antagonist derivatives can be tested for biological and pharmacological activity by an in vitro technique. In this test a measurement is taken of the concentration of the derivative required to block a specified dose of isoproterenol (β-adrenergic agonist) in S-49 mouse lymphoma cells as measured by cyclic AMP accumulation therein. Details of the test utilizing S-49 mouse lymphoma cells is set forth in Coffino et al, In Vitro, 14, #1, 140 (1978). The activities of the β-adrenergic derivatives are expressed as the relative potencies of the unmodified drug, i.e., the β-adrenergic antagonist to that of the derivative drug.
row,Compound,Rel. Potency (potency relative to the parent compound)
1,"CC(=O)Nc1ccc(OCC(O)CNC(C)CCCCC(=O)Nc2ccc(C)cc2)cc1 (stereo not shown) [Compound 17, 6-[3-(4-Acetamidophenoxy)-2-Hydroxypropylamino]-Heptanoic Acid p-Toluide]",2.1 × 10^1
2,"CC(=O)Nc1ccc(OCC(O)CNC(C)CCCCC(=O)Nc2ccc(C(F)(F)F)cc2)cc1 (stereo not shown) [Compound 18, 6-[3-(4-Acetamidophenoxy)-2-Hydroxypropylamino]-Heptanoic Acid p-Trifluoromethylanilide]",6.0
3,"CC(=O)Nc1ccc(OCC(O)CNC(C)CCCCC(=O)Nc2ccc(C[C@H](NC(C)=O)C(=O)NCCCO)cc2)cc1 (stereo partly drawn) [Compound 19, N^α -Acetyl-p-{6-(3-[4-Acetamidophenoxy]-2-Hydroxypropylamino)-Heptanoylamino}-L-Phenylalanyl-3-Hydroxypropylamide]",1.5

# Same assay, conditions: relative to propranolol; blocking isoproterenol-promoted cyclic AMP release in S49 cells
row,Compound,Rel. Potency (potency relative to the parent compound)
1,"Cc1ccc(NC(=O)CCCCCC(C)NCC(O)COc2cccc3ccccc23)cc1 (stereo not shown) [Compound 10, 7-[3-(1-Naphthyloxy)-2-Hydroxypropylamino]-Octanoic Acid-p-Toluide]",3.7 × 10^-2
2,"CCCCNC(=O)CCc1ccc(NC(=O)CCCCC(C)NCC(O)COc2cccc3ccccc23)cc1 (stereo not shown) [Compound 13, 3-{p-(6-[3-(1-Naphthyloxy)-2-Hydroxypropylamino]Heptanoylamino)-Phenyl}-Propionic Acid n-Butylamide]",4.5 × 10^-2
3,"CCCCNC(=O)CCCCC(C)NCC(O)COc1cccc2ccccc12 (stereo not shown) [Compound 14, 6-[3-(1-Naphthyloxy)-2-Hydroxypropylamino]-Heptanoic Acid n-Butylamide]",9.1 × 10^-1
4,"Cc1ccc(NC(=O)CCCC(C)NCC(O)COc2cccc3ccccc23)cc1 (stereo not shown) [Compound 8, 5-[3-(1-Naphthyloxy)-2-Hydroxypropylamino]-Hexanoic Acid p-Toluide]",6.8 × 10^-5
5,"CC(CCCCC(=O)Nc1ccc(C(F)(F)F)cc1)NCC(O)COc1cccc2ccccc12 (stereo not shown) [Compound 11, 6-[3-(1-Naphthyloxy)-2-Hydroxypropylamino]-Heptanoic Acid p-Trifluoromethylanilide]",8.75
6,"CC(CCCCC(=O)Nc1ccc(CCC(=O)O)cc1)NCC(O)COc1cccc2ccccc12 (stereo not shown) [Compound 12, 3-{p-(6-[3-(1-Naphthyloxy)-2-Hydroxypropylamino]Heptanoylamino)-Phenyl}-Propionic Acid]",8.8 × 10^-1
7,"CC(=O)N[C@@H](Cc1ccc(NC(=O)CCCCC(C)NCC(O)COc2cccc3ccccc23)cc1)C(=O)NCCCO (stereo partly drawn) [Compound 15, N^α -Acetyl-p-{6-(3-[1-Naphthyloxy]-2-Hydroxypropylamino)-Heptanoylamino}-L-Phenylalanyl-3-Hydroxypropylamide]",1.75 × 10^-1
8,"CNC(=O)CNC(=O)[C@H](Cc1ccc(NC(=O)CCCCC(C)NCC(O)COc2cccc3ccccc23)cc1)NC(=O)OC(C)(C)C (stereo partly drawn) [Compound 16, N^α -t-Butyloxycarbonyl-p-{6-(3-[1-Naphthyloxy]-2-Hydroxypropylamino)-Heptanoylamino}-L-Phenylalanyl-Glycyl-Methylamide]",7.8 × 10^-4
9,"Cc1ccc(NC(=O)CCC(C)NCC(O)COc2cccc3ccccc23)cc1 (stereo not shown) [Compound 7, 4-[3-(1-Naphthyloxy)-2-Hydroxypropylamino]-Pentanoic Acid p-Toluide]",6.8 × 10^-5
10,"Cc1ccc(NC(=O)CCCCC(C)NCC(O)COc2cccc3ccccc23)cc1 (stereo not shown) [Compound 9, 6-[3-(1-Naphthyloxy)-2-Hydroxypropylamino]-Heptanoic Acid p-Toluide]",4.5 × 10^2
